Assay results as given in patent US11560596B2, “Method for expecting and diagnosing UQCRB-related disease” (Industry-Academic Cooperation Foundation, Yonsei University, priority 2015, dated 2023).

Tested on: UQCRB mutant cell strains MT1 and MT2
Assay: MTT colorimetric assay of cell growth after treatment with cholesterol synthesis inhibitors
Assay type: cell-based
Conditions: FIGS. 11 to 13
Description: FIG. 11 represents MTT colorimetric assay showing the cell growth of HEK293, MT1, and MT2 cells treated with a cholesterol inhibitor.
FIG. 12 represents MTT colorimetric assay showing the cell growth of HEK293, MT1, and MT2 cells treated with a cholesterol inhibitor.
FIG. 13 represents MTT colorimetric assay showing the cell growth of HEK293, MT1, and MT2 cells treated with a cholesterol inhibitor.
For the purpose of verifying validity for selection of cholesterol metabolic process as a pathway in which UQCRB was participated, a cholesterol synthesis inhibitor was processed in UQCRB mutant cell strains to measure an effect that the cholesterol synthesis inhibitor affects growth of the UQCRB mutant cell strains, and the result thereof was shown in FIGS. 11 to 13.

Row | SMILES | growth of the UQCRB mutant cell strains MT1 and MT2
1 | F/C(COc1ccc2c(c1)[nH]c1ccccc12)=C1/CN2CCC1CC2 [YM-53601] | inhibited
2 | CC[C@H](C)C(=O)O[C@H]1CCC=C2C=C[C@H](C)[C@H](CC[C@@H]3C[C@@H](O)CC(=O)O3)[C@H]21 [Mevastatin] | inhibited
